Read-outs that look alike come from different tables or passages of the source.
Columns and labels:
HCT15 = test: cells; details: Homo sapiens, HCT-15, read-out: GI50 of etoposide (±Compound 1)
Procedure: (§3) Cell growth and treatment were performed in 96-well microtitre plates CELLSTAR® (Greiner Bio-One, Germany). Cells harvested from exponential phase cultures by trypsinization or by splitting (in the case of cells growing in suspension) were plated in 90 μl of media at optimal seeding densities. The optimal seeding density for each cell line was determined to ensure exponential growth for the duration of the experiment. All cells growing without anticancer agents were sub-confluent by the end of the treatment, as determined by visual inspection.
(§4) 90 μl of cells, after a 48-hour pre-growth period, were treated by mixing with 10 μl of the compound-containing media (resulting in a final DMSO concentration of 0.1%). The cells were allowed to grow at 37° C. for 72 (or 120) hours.
(§5) Cells were fixed to the surface by addition of 10% TCA (for adherent growing cells) or 50% TCA (for semi-adherent growing cell or cells growing in suspension). After an hour of incubation at 4° C. plates were washed twice with 200 μl of deionized water and dried. Cells were then stained with 100 μl of 0.04% w/v SRB. […]
(§6) Using these measurements, cellular responses can be calculated for incomplete inhibition of cell growth (GI), complete inhibition of cell growth (TGI) and net loss of cells (LC) due to compound activity. […] TGI was calculated from Ti=Tz. […] It was calculated as 100×[(Ti−Tz)/Tz]=−50.

THP-1 = test: SRB growth inhibition, 93 cell lines panel; type: cell-based; details: Homo sapiens; THP-1, hematological; read-out: GI50 of etoposide (±Compound 1)
Procedure: (§1) 90 μl of cells, after a 48-hour pre-growth period, were treated by mixing with 10 μl of the compound-containing media (resulting in a final DMSO concentration of 0.1%).
(§2) This is the drug concentration causing a 50% reduction compared to the net protein increase in control cells during the drug incubation period. In other words, G150 is IC50 corrected for time zero. […] TGI was calculated from Ti=Tz. […] It was calculated as 100×[(Ti−Tz)/Tz]=−50.

DU145 = test: SRB growth inhibition, 93 cell lines panel; type: cell-based; details: Homo sapiens, DU-145; DU145, prostate; read-out: GI50 of etoposide (±Compound 1)
Procedure: as §1, §2

NCIH292 = test: SRB growth inhibition, 93 cell lines panel; type: cell-based; details: Homo sapiens, NCI-H292; NCIH292, lung; read-out: GI50 of etoposide (±Compound 1)
Procedure: as §1, §2

RAMOS = test: SRB growth inhibition, 93 cell lines panel; type: cell-based; details: Homo sapiens, hematological, read-out: GI50 of etoposide (±Compound 1)
Procedure: as §1, §2

A375 = test: SRB growth inhibition, 93 cell lines panel; type: cell-based; details: Homo sapiens, A-375; A375, skin; read-out: GI50 of etoposide (±Compound 1)
Procedure: as §1, §2

SW620 = test: SRB growth inhibition, 93 cell lines panel; type: cell-based; details: Homo sapiens, SW-620; SW620, colon; read-out: GI50 of etoposide (±Compound 1)
Procedure: as §1, §2

MCF7 = test: SRB growth inhibition, 93 cell lines panel; type: cell-based; details: Homo sapiens; MCF7, breast; read-out: GI50 of etoposide (±Compound 1)
Procedure: as §1, §2

A673 = test: SRB growth inhibition, 93 cell lines panel; type: cell-based; details: Homo sapiens; A673, muscle; read-out: GI50 of etoposide (±Compound 1)
Procedure: as §1, §2

PBMC = test: SRB growth inhibition, 93 cell lines panel; type: cell-based; details: hematological, read-out: GI50 of etoposide (±Compound 1)
Procedure: as §1, §2

EFO21 = test: SRB growth inhibition, 93 cell lines panel; type: cell-based; details: Homo sapiens, EFO-21; EFO21, ovary; read-out: GI50 of etoposide (±Compound 1)
Procedure: as §1, §2

HCT116 = test: SRB growth inhibition, 93 cell lines panel; type: cell-based; details: Homo sapiens, HCT-116; HCT116, colon; read-out: GI50 of etoposide (±Compound 1)
Procedure: as §1, §2

15O31 = test: SRB growth inhibition, 93 cell lines panel; type: cell-based; details: 15O31, kidney; read-out: GI50 of etoposide (±Compound 1)
Procedure: as §1, §2

NCIH460 = test: SRB growth inhibition, 93 cell lines panel; type: cell-based; details: Homo sapiens, NCI-H460; NCIH460, lung; read-out: GI50 of etoposide (±Compound 1)
Procedure: as §1, §2

K-562 = test: SRB growth inhibition, 93 cell lines panel; type: cell-based; details: Homo sapiens, K562; K-562, hematological; read-out: GI50 of etoposide (±Compound 1)
Procedure: as §1, §2

HT1080 = test: SRB growth inhibition, 93 cell lines panel; type: cell-based; details: Homo sapiens, HT-1080; HT1080, connective tissue; read-out: GI50 of etoposide (±Compound 1)
Procedure: as §1, §2

GRANTA-519 = test: SRB growth inhibition, 93 cell lines panel; type: cell-based; details: Homo sapiens; GRANTA-519, hematological; read-out: GI50 of etoposide (±Compound 1)
Procedure: as §1, §2

CASKI = test: SRB growth inhibition, 93 cell lines panel; type: cell-based; details: Homo sapiens, Ca-Ski, cervix, read-out: GI50 of etoposide (±Compound 1)
Procedure: as §1, §2

SU-DHL-6 = test: SRB growth inhibition, 93 cell lines panel; type: cell-based; details: Homo sapiens; SU-DHL-6, hematological; read-out: GI50 of etoposide (±Compound 1)
Procedure: as §1, §2

OVCAR3 = test: SRB growth inhibition, 93 cell lines panel; type: cell-based; details: Homo sapiens, OVCAR-3; OVCAR3, ovary; read-out: GI50 of etoposide (±Compound 1)
Procedure: as §1, §2

HT29 = test: SRB growth inhibition, 93 cell lines panel; type: cell-based; details: Homo sapiens, HT-29; HT29, colon; read-out: GI50 of etoposide (±Compound 1)
Procedure: as §1, §2

MDAMB435 = test: SRB growth inhibition, 93 cell lines panel; type: cell-based; details: Homo sapiens, MDA-MB-435; MDAMB435, skin; read-out: GI50 of etoposide (±Compound 1)
Procedure: as §1, §2

PANC1005 = test: SRB growth inhibition, 93 cell lines panel; type: cell-based; details: Homo sapiens; PANC1005, pancreas; read-out: GI50 of etoposide (±Compound 1)
Procedure: as §1, §2

panel of 93 cell lines = test: SRB growth inhibition, 93 cell lines panel (summary); type: cell-based
Procedure: as §1, §2
The * or ** mark the lowest or highest tested concentrations. […] Both uM and μM stand for micromolar.

CACO2 = test: cells; details: Homo sapiens, Caco-2, read-out: GI50 of etoposide (±Compound 1)
Procedure: as §3, §4, §5, §6

[1] = tested on: 81 cancer cell lines representing 17 tumor tissue types; test: Single agent activity, panel of 81 cancer cell lines plus PBMC; type: cell-based; details: for GI50: PBMC
[2] = tested on: resting, non-proliferating PBMC; test: as above; type: cell-based
SF268 = test: SRB growth inhibition, 93 cell lines panel; details: Homo sapiens, SF-268, read-out: GI50 of etoposide (±Compound 1)
Procedure: Cell growth and treatment were performed in 96-well microtitre plates CELLSTAR® (Greiner Bio-One, Germany). Cells harvested from exponential phase cultures by trypsinization or by splitting (in the case of cells growing in suspension) were plated in 90 μl of media at optimal seeding densities. The optimal seeding density for each cell line was determined to ensure exponential growth for the duration of the experiment. All cells growing without anticancer agents were sub-confluent by the end of the treatment, as determined by visual inspection. […] The cells were allowed to grow at 37° C. for 72 (or 120) hours. […] Cells were fixed to the surface by addition of 10% TCA (for adherent growing cells) or 50% TCA (for semi-adherent growing cell or cells growing in suspension). After an hour of incubation at 4° C. plates were washed twice with 200 μl of deionized water and dried. Cells were then stained with 100 μl of 0.04% w/v SRB. The plates were incubated at room temperature for at least 30 min and washed six times with 1% acetic acid to remove unbound stain. […] Using these measurements, cellular responses can be calculated for incomplete inhibition of cell growth (GI), complete inhibition of cell growth (TGI) and net loss of cells (LC) due to compound activity. […] TGI was calculated from Ti=Tz.

FaDu xenograft = type: in vivo
Text: The standard radiotherapy regimen used in the clinic is a 6-week fractionated treatment schedule (5 fractions of 2 Gy IR per week—60 Gy total).

COc1cc([C@@H]2c3cc4c(cc3[C@@H](O[C@@H]3O[C@@H]5CO[C@@H](C)O[C@H]5[C@H](O)[C@H]3O)[C@H]3COC(=O)[C@H]23)OCO4)cc(OC)c1O [Etoposide]
GI50 (HCT15): 1470 nM | GI50 (THP-1): 110 nM | GI50 (DU145): 701 nM | GI50 (NCIH292): 1650 nM | GI50 (RAMOS): 204 nM | GI50 (A375): 378 nM | GI50 (SW620): 302 nM | GI50 (MCF7): 1290 nM | GI50 (A673): 1080 nM | GI50 (PBMC): > 10000 nM | GI50 (EFO21): 8220 nM | GI50 (HCT116): 770 nM | GI50 (15O31): 7910 nM | GI50 (NCIH460): 167 nM | GI50 (K-562): 277 nM | GI50 (HT1080): 96 nM | GI50 (GRANTA-519): 247 nM | GI50 (CASKI): 1450 nM | GI50 (SU-DHL-6): 665 nM | GI50 (OVCAR3): 2540 nM | GI50 (HT29): 2220 nM | GI50 (MDAMB435): 1140 nM | GI50 (PANC1005): 2730 nM | GI50 (panel of 93 cell lines; read-out: Average GI50): 1700 nM | GI50 (panel of 93 cell lines; read-out: Median GI50): 900 nM | GI50 (panel of 93 cell lines; read-out: Most resistant cell line (GI50)): > 10000 nM | GI50 (panel of 93 cell lines; read-out: Most sensitive cell line (GI50)): 38 nM | GI50 (CACO2): 3650 nM | activity range [1]: more than 1000 fold | activity in resting PBMC [2]: no activity | GI50 (SF268): 1970 nM

COc1ccc([C@@H](O)c2cc(-c3ncnc4cc(N5CCOCC5)ccc34)c(F)cc2Cl)nn1 [Compound 1, (S)-[2-chloro-4-fluoro-5-(7-morpholin-4-yl-quinazolin-4-yl)-phenyl]-(6-methoxy-pyridazin-3-yl)-methanol]
activity range [1]: more than 20 fold | GI50 ([1]; in a set of cell lines, read-out: activity (GI50), lower end of range): 500 nM | GI50 ([1]; read-out: activity (GI50), upper end of range): > 10000 nM | activity in resting PBMC [2]: No activity | complete tumor regression, % of the animals (FaDu xenograft; 6 weeks IR (60 Gy total) + 10 mg/kg po, no regrowth during study period (113 days)): 44% | tumor regression (FaDu xenograft; 6 weeks IR (60 Gy total) + 25 and 50 mg/kg po): regressed in all 10 animals | tumor growth in comparison to IR alone (FaDu xenograft; 6 weeks IR (60 Gy total) + Compound 1 po): strong inhibition of tumor growth | tolerability (FaDu xenograft; 6 weeks IR + Compound 1): generally well tolerated
